Laboratory results from PubChem BioAssay (NCI).
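Five concentrations, 48 hours, 96-well plates. TGI denotes the concentration required for complete inhibition of growth.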

What was measured:
Assay in all cases: DTP human tumour cell line panel, 48 h
A498 renal = test system: A498 renal
COLO 205 colon = test system: COLO 205 colon
U251 CNS = test system: U251 CNS
HS 578T breast = test system: HS 578T breast
CAKI-1 renal = test system: CAKI-1 renal
SK-OV-3 ovarian = test system: SK-OV-3 ovarian
RPMI-8226 leukemia = test system: RPMI-8226 leukemia
OVCAR-3 ovarian = test system: OVCAR-3 ovarian
LOX IMVI melanoma = test system: LOX IMVI melanoma
OVCAR-5 ovarian = test system: OVCAR-5 ovarian
MDA-MB-231 breast = test system: MDA-MB-231 breast
NCI/ADR-RES ovarian = test system: NCI/ADR-RES ovarian
UACC-257 melanoma = test system: UACC-257 melanoma
SF-295 CNS = test system: SF-295 CNS
SW-620 colon = test system: SW-620 colon
HOP-62 NSCLC = test system: HOP-62 NSCLC
CCRF-CEM leukemia = test system: CCRF-CEM leukemia
MALME-3M melanoma = test system: MALME-3M melanoma
EKVX NSCLC = test system: EKVX NSCLC
SN12C renal = test system: SN12C renal
M14 melanoma = test system: M14 melanoma
SNB-19 CNS = test system: SNB-19 CNS
SR leukemia = test system: SR leukemia
T-47D breast = test system: T-47D breast
HOP-92 NSCLC = test system: HOP-92 NSCLC
NCI-H226 lung = test system: NCI-H226 lung
OVCAR-8 ovarian = test system: OVCAR-8 ovarian
HCT-15 colon = test system: HCT-15 colon
SF-539 CNS = test system: SF-539 CNS
DU-145 prostate = test system: DU-145 prostate
IGROV1 ovarian = test system: IGROV1 ovarian
OVCAR-4 ovarian = test system: OVCAR-4 ovarian
SK-MEL-28 melanoma = test system: SK-MEL-28 melanoma
HCT-116 colon = test system: HCT-116 colon
ACHN renal = test system: ACHN renal
PC-3 prostate = test system: PC-3 prostate
SK-MEL-5 melanoma = test system: SK-MEL-5 melanoma
A549 NSCLC = test system: A549 NSCLC
MCF7 breast = test system: MCF7 breast
TK-10 renal = test system: TK-10 renal
MDA-N = test system: MDA-N
SF-268 CNS = test system: SF-268 CNS
MOLT-4 leukemia = test system: MOLT-4 leukemia
UO-31 renal = test system: UO-31 renal
HL-60(TB) leukemia = test system: HL-60(TB) leukemia
SNB-75 CNS = test system: SNB-75 CNS
UACC-62 melanoma = test system: UACC-62 melanoma
RXF 393 renal = test system: RXF 393 renal
MDA-MB-435 = test system: MDA-MB-435
NCI-H460 lung = test system: NCI-H460 lung
SK-MEL-2 melanoma = test system: SK-MEL-2 melanoma
BT-549 breast = test system: BT-549 breast
NCI-H23 lung = test system: NCI-H23 lung
786-0 renal = test system: 786-0 renal
KM12 colon = test system: KM12 colon
HT29 colon = test system: HT29 colon
K-562 leukemia = test system: K-562 leukemia
NCI-H522 lung = test system: NCI-H522 lung
HCC-2998 colon = test system: HCC-2998 colon

Measured: TGI

Cc1cc(/N=C/c2ccc(F)cc2)n(-c2ccccc2)n1
> 100 µM: A498 renal | COLO 205 colon | U251 CNS | HS 578T breast | CAKI-1 renal | SK-OV-3 ovarian | OVCAR-3 ovarian | LOX IMVI melanoma | OVCAR-5 ovarian | MDA-MB-231 breast | NCI/ADR-RES ovarian | UACC-257 melanoma | SF-295 CNS | SW-620 colon | HOP-62 NSCLC | CCRF-CEM leukemia | MALME-3M melanoma | EKVX NSCLC | SN12C renal | M14 melanoma | SNB-19 CNS | SR leukemia | T-47D breast | HOP-92 NSCLC | NCI-H226 lung | OVCAR-8 ovarian | HCT-15 colon | SF-539 CNS | DU-145 prostate | IGROV1 ovarian | OVCAR-4 ovarian | SK-MEL-28 melanoma | HCT-116 colon | ACHN renal | PC-3 prostate | SK-MEL-5 melanoma | A549 NSCLC | MCF7 breast | TK-10 renal | MDA-N | SF-268 CNS | MOLT-4 leukemia | UO-31 renal | HL-60(TB) leukemia | SNB-75 CNS | UACC-62 melanoma | RXF 393 renal | MDA-MB-435 | NCI-H460 lung | SK-MEL-2 melanoma | BT-549 breast | NCI-H23 lung | 786-0 renal | KM12 colon | HT29 colon | K-562 leukemia | NCI-H522 lung
92.8 µM: RPMI-8226 leukemia

CN(C)CCCn1cnc2cc(Cl)c(Cl)cc21
82.2 µM: UACC-62 melanoma
> 100 µM: A498 renal | COLO 205 colon | U251 CNS | HS 578T breast | CAKI-1 renal | SK-OV-3 ovarian | RPMI-8226 leukemia | OVCAR-3 ovarian | LOX IMVI melanoma | OVCAR-5 ovarian | MDA-MB-231 breast | NCI/ADR-RES ovarian | SF-295 CNS | SW-620 colon | HOP-62 NSCLC | CCRF-CEM leukemia | MALME-3M melanoma | EKVX NSCLC | SN12C renal | SNB-19 CNS | SR leukemia | T-47D breast | NCI-H226 lung | OVCAR-8 ovarian | HCT-15 colon | DU-145 prostate | IGROV1 ovarian | OVCAR-4 ovarian | HCT-116 colon | ACHN renal | PC-3 prostate | SK-MEL-5 melanoma | A549 NSCLC | MCF7 breast | TK-10 renal | MDA-N | SF-268 CNS | UO-31 renal | HL-60(TB) leukemia | RXF 393 renal | MDA-MB-435 | NCI-H460 lung | SK-MEL-2 melanoma | BT-549 breast | NCI-H23 lung | 786-0 renal | KM12 colon | HT29 colon | K-562 leukemia | NCI-H522 lung
36.1 µM: M14 melanoma
40.7 µM: UACC-257 melanoma
41.8 µM: SK-MEL-28 melanoma
40.6 µM: HCC-2998 colon
98.9 µM: SNB-75 CNS

O=C1NI(C#Cc2ccccc2)c2ccccc21
> 100 µM: A498 renal | COLO 205 colon | U251 CNS | HS 578T breast | CAKI-1 renal | RPMI-8226 leukemia | OVCAR-3 ovarian | LOX IMVI melanoma | MDA-MB-231 breast | NCI/ADR-RES ovarian | UACC-257 melanoma | SF-295 CNS | SW-620 colon | HOP-62 NSCLC | MALME-3M melanoma | SN12C renal | M14 melanoma | SNB-19 CNS | SR leukemia | T-47D breast | NCI-H226 lung | OVCAR-8 ovarian | HCT-15 colon | SF-539 CNS | DU-145 prostate | IGROV1 ovarian | OVCAR-4 ovarian | SK-MEL-28 melanoma | HCT-116 colon | SK-MEL-5 melanoma | A549 NSCLC | TK-10 renal | MDA-N | SF-268 CNS | MOLT-4 leukemia | UO-31 renal | HL-60(TB) leukemia | UACC-62 melanoma | MDA-MB-435 | NCI-H460 lung | SK-MEL-2 melanoma | BT-549 breast | NCI-H23 lung | 786-0 renal | KM12 colon | HT29 colon | K-562 leukemia
88.9 µM: CCRF-CEM leukemia
95.1 µM: SK-OV-3 ovarian
79.6 µM: PC-3 prostate
94.3 µM: MCF7 breast

CC(=O)O[C@H]1CC[C@@]2(C)C(=CC[C@H]3[C@@H]4C/C(=C\c5ccc(N(C)C)cc5)[C@H](OC(C)=O)[C@@]4(C)CC[C@@H]32)C1
51.6 µM: HOP-62 NSCLC
34.2 µM: HT29 colon
20.8 µM: LOX IMVI melanoma
19.1 µM: 786-0 renal
29.4 µM: COLO 205 colon | MDA-MB-231 breast
26.6 µM: MCF7 breast
35.6 µM: TK-10 renal
27.7 µM: UO-31 renal
46.4 µM: SW-620 colon
25.3 µM: HCT-116 colon
24.4 µM: ACHN renal
28.4 µM: IGROV1 ovarian
37.9 µM: SN12C renal
41.8 µM: OVCAR-3 ovarian
31.7 µM: A549 NSCLC
41.2 µM: HL-60(TB) leukemia
33.4 µM: NCI-H226 lung | BT-549 breast
18.2 µM: NCI-H460 lung
36 µM: M14 melanoma | MDA-N
74.9 µM: SK-MEL-5 melanoma
31.9 µM: HCT-15 colon
23.4 µM: OVCAR-8 ovarian
52.8 µM: OVCAR-5 ovarian
42.7 µM: RXF 393 renal
26.7 µM: SF-268 CNS
27.9 µM: SF-539 CNS
30.9 µM: NCI-H23 lung
36.6 µM: A498 renal
76.8 µM: T-47D breast
27.3 µM: SNB-19 CNS
36.7 µM: EKVX NSCLC
69 µM: OVCAR-4 ovarian
> 100 µM: SK-OV-3 ovarian | RPMI-8226 leukemia | SR leukemia | DU-145 prostate | MOLT-4 leukemia | SNB-75 CNS | KM12 colon | K-562 leukemia
35.4 µM: NCI/ADR-RES ovarian
16.7 µM: PC-3 prostate
22.5 µM: SK-MEL-2 melanoma
29.7 µM: MALME-3M melanoma
9.36 µM: HS 578T breast
19.4 µM: U251 CNS
21.4 µM: UACC-257 melanoma
21 µM: SF-295 CNS
32.8 µM: SK-MEL-28 melanoma
20.7 µM: UACC-62 melanoma
